Tested on: mouse RAW macrophages
Assay: Asbestos-induced ROS in RAW macrophages
Assay type: cell-based
Description: SDG blunts asbestos-induced ROS secretion by human mesothelial cells in vitro (FIG. 50). Experimental plan for detecting asbestos-induced ROS in cells: (human mesothelial) HM cells or mouse macrophages plated in 20% DMEM for 24 hours; Added 20 μM DCF in HBSS for 1 hour; Supernatant replaced with 1% DMEM containing H2O2 (100 μM), asbestos (10 μg crocidolite/cm^2) and/or SDG (50 μM); and Fluorescence level monitored up to 36 hours post-initiation of asbestos exposure.
Asbestos-Induced Oxidative Stress (ROS release) in Culture RAW Macrophages was evaluated. Cells were treated with the ROS-sensitive dye H2DCFDA for 30 min and then they were exposed to vehicle to 40 μg/cm2 asbestos fibers, or 4 uM hypochlorite solution and fluorescence intensity was measured spectrophotometrically for 90, 150 minutes and 27 hours. Asbestos-induced ROS was generated shortly post asbestos exposure and continued for the duration of the observation period (FIG. 51).

Compound: COc1cc(C[C@@H](CO[C@@H]2O[C@H](CO)[C@@H](O)[C@H](O)[C@H]2O)[C@H](CO[C@@H]2O[C@H](CO)[C@@H](O)[C@H](O)[C@H]2O)Cc2ccc(O)c(OC)c2)ccc1O [SDG, secoisolariciresinol diglucoside]
- Asbestos-induced ROS: blocks asbestos-induced ROS
